Source: patent US9012436B2, “Lipid composition” (Diurnal Limited, priority 2008, dated 2015)

Test: Solubilisation capacity of formulation systems for testosterone
Description: The formulation systems as detailed in Table 1 all show significant solubilisation capacity for testosterone (>50 mg/^1) which is at least 100-fold higher than that achievable in aqueous media (<0.3 mg/g^1) and at least 5-fold higher than that achievable in single component lipidic vehicles alone (max.<10 mg/g).
^1N.B: For aqueous systems 1 g=1 mL; for oil systems 1 g=>1 mL

C[C@]12CC[C@H]3[C@@H](CCC4=CC(=O)CC[C@@]43C)[C@@H]1CC[C@@H]2O [testosterone]
Solubility of testosterone achievable in aqueous media (aqueous media): < 0.3 mg/g | Solubility of testosterone achievable in single component lipidic vehicles alone (single component lipidic vehicles, max.): < 10 mg/g
